Patent US8440180B2, “Anti-cancer composition comprising aquatic microbial extract” (Ajou University Industry-Academic Cooperation Foundation, priority 2007, dated 2013)

Key:
Type in all cases: cell-based, human
FaDu cells = assay: Proliferative assay of tumor cell; conditions: fifth day after the treatment, compared to the DMSO control
Procedure: In order to evaluate effects of selected aquatic microbial extracts having an anti-cancer effect, FaDu cells (1×10^5/well) treated with 0, 10 and 30 ng/ml of HGF were treated with an aquatic Bacillus sp. strain extract (concentration: 1, 10 and 100 μM), and then incubated for 5 days. Then, 1, 3 and 5-day growth of the FaDu cells were determined by measuring the cell number of the FaDu cells using a haemocytometer. In this case, a medium was replaced by fresh medium. This experiment was repeated five times to statistically analyze the cell number difference according to the amounts of HGF and the extract.

MMP-2 = assay: Expression level test of MMP using RT-PCR; conditions: for expression level of the MMP-2: 24 and 48 hours
Procedure: 1 ml of a cancer cell line was homogenated in a TRIzol (GIBCOBRL, Grand Island, N.Y., USA) reagent, and the total RNA was extracted from the cancer cell line. 2 μg of the total RNA extracted from the hypopharyngeal cancer cell line was put into reaction mixtures of an Omniscript Reverse Transcriptase kit (20511, Qiagen Germany) (including 2.0 μl of 10× Buffer RT, 2.0 μl of dNTP Mix (5 mM each dNTP), 2.0 μl of Oligo-dT primer (10 μM), 1.0 μl of a RNase inhibitor (10 units/μl), 2 units of Omniscript Reverse Transcriptase and 20 μl of RNase-free water), and reverse transcribed at 37° C. for 60 minutes and at 94° C. for 5 minutes to synthesize cDNA. PCR was carried out using Minicycler™ (MJ research, USA), and the synthesized cDNA was added together with 1 unit of Taq DNA polymerase (Roche Diagnostics Co, Indianapolis, USA) and each primer, and then amplified.
DNA sequences of MMP-2 primer and MMP-9 primer used in this experiment were listed as follows.
A PCR procedure was carried out in one initial denaturation cycle at 96° C. for 3 minutes, 30 amplification cycles at 96° C. for 30 seconds, at 55° C. for 30 seconds and at 72° C. for 30 seconds, and one extension cycle at 72° C. for 5 minutes.

MMP-9 = assay: MMP activity test using zymogram; conditions: 10 ng HGF-treated group compared to the control
Procedure: Proteins were quantitified from each of the supernatants, 30 μg of each supernatant was taken, and 15 μl APMA was added to each of the supernatants and activated at 37° C. for 1 hour. The activated test samples were added, and treated with MightySlim™ SX 250 (Hoefer, Calif., USA) for 2 4 hours and 48 hours. Then, the resulting test samples were ground to obtain cytoplasm samples. 10 μl of the cytoplasm samples were taken from these cytoplasm samples and added to sample buffers, respectively, and kept for 10 minutes. Then, the cytoplasm samples were added to previously-prepared gels, and then reacted at 4° C. and 125V for 120 minutes using Novex XCell II. The resulting cytoplasm samples were kept in a renaturing buffer at a room temperature for 60 minutes, and, after a developing buffer was replaced by 100 ml of fresh developing buffer, the cytoplasm samples were kept in the fresh developing buffer for 18 hours at 37° C. while stirring. Then, the cytoplasm samples were stained with Coomassie blue for 3 hours, washed with water, and observed at intervals of 10 minutes. In this case, a the gels were destained with a destaining solution (Methanol 400 ml, Acetic acid 100 ml, Distilled water 500 ml), and photographs of the gels were then taken using an image analyzer.

HGF: hepatocyte growth factor used to stimulate cancer cells
cell proliferation on stimulation with hepatocyte growth factor (FaDu cells): statistically significant cell proliferation
expression level of the MMP-2 (MMP-2; 10 ng/ml HGF, vs control): not significantly different
expression level of the MMP-2 (MMP-2; 30 ng/ml HGF): increased
expression level between the control and the HGF-treated groups when MMP-2 was treated with the HGF (MMP-2; second statement, printed MMP-2): no distinct difference
expression of the MMP-9 (MMP activity evaluation) (MMP-9): slightly increased
